Experimental data reported in patent publication US12622966B2, “Compound for photothermal cancer therapy, composition including the same, and method for photothermal cancer therapy” (PUKYONG NATIONAL UNIVERSITY INDUSTRY-UNIVERSITY COOPERATION …, priority 2022, dated 2026).

Assays:
[1] = UV-Vis absorption in DMSO; format: physicochemical; details: for λabs, absorption wavelength: in DMSO
Experimental: FIG. 2 illustrates UV-Vis absorption (solid line) and fluorescence emission (dotted line) spectra of NI1 (60 μM) and NI2 (40 μM) in DMSO according to an embodiment of the present disclosure;
In the UV-Vis spectrum of FIG. 2 and Table 1, an absorption peak of NI1 has a tendency of red-shift absorption (λabs=728 nm, in DMSO) compared to NI2 (λabs=690 nm, in DMSO) in an organic solvent. […] The molar absorption coefficient (8) of NI1 is relatively lower than that of NI2, which generates a conjugate in a free pair of electrons of an —NH group due to the introduction of a phenyl group in NI2 and may reduce an ICT effect from an electron donor group to an electron acceptor group compared to NI1.

[2] = Photothermal conversion efficiency; format: physicochemical; parameters: η (THF), photothermal conversion efficiency: concentration or dose not given beside the values; details: for η (DMSO), photothermal conversion efficiency: in DMSO; for η (THF), photothermal conversion efficiency: in THF; for η (NPs), photothermal conversion efficiency: nanoparticles (nanoaggregates)
Experimental: FIGS. 3A, 3B, and 3C relate to the thermal reaction of NI2 NPs according to 691 nm laser irradiation at 1 W/cm^2 and 1.5 W/cm^2 according to an embodiment of the present disclosure. FIG. 3A illustrates temperature rise measured in NI2 NPs at various concentrations (0 for distilled water, 25, 50, 75, and 100 μM) after irradiation for 150 seconds (N=4); FIG. 3B illustrates photothermal convergence efficiency (PCE) of NI2 NPs (100 μM) in 4 ON/OFF cycles of laser irradiation (ON/OFF time=150 s/450 s; duty cycle=25%); and FIG. 3C illustrates infrared thermal images of NI2 NPs (100 μM) captured at various irradiation times (scale bar=5 mm);
FIGS. 3A, 3B and 3C show quantitative analysis results of the photothermal characteristics and photothermal conversion efficiency of NI2 nanoparticles according to various concentrations and laser irradiation times in a 691 nm laser (1 W/cm^2 and 1.5 W/cm^2) irradiation of NI2 nanoparticles. When the concentration of the NI2 solution (in D.W.) was changed from 0 to 100 μM, it could be seen that the temperature increased in proportion to the concentration when the temperature change of the NI2 solution was measured after absorption for 150 seconds. That is, in FIG. 3A, it may be seen that a temperature increase (ΔT) changes linearly after irradiation for 150 seconds (R^2=0.98 to 0.99), and the maximum temperature of the NI2 NP was 42.8±2.8° C. and 54.4±0.5° C. for 1 W/cm^2 and 1.5 W/cm^2 at 100 μM, respectively. […] In FIG. 3C, it may be seen in the captured sequential thermal images showing the “spatio-temporal distribution” in the temperature area.

SMILES	ε, molar absorption coefficient [1]	λabs, absorption wavelength [1] [nm]	η (DMSO), photothermal conversion efficiency [2] [%]	η (THF), photothermal conversion efficiency [2] [%]	η (NPs), photothermal conversion efficiency [2] [%]
N#CC(C#N)=C1C(=Nc2ccc(Nc3ccccc3)cc2)C(=C(C#N)C#N)c2ccccc21 [NI2]	15.6 ×10^3	690	52.1	32.4	92.5
CNc1ccc(N=C2C(=C(C#N)C#N)c3ccccc3C2=C(C#N)C#N)cc1 [NI1]	12.0 ×10^3	728	50.3	31.4	58.3
